From US7871631B2, “Methods of inhibiting the lowering of antihuman TNF-α antibody” (Ajinomoto Co., Inc., priority 2004, dated 2011)

Tests used:
[1] = system: patient with small intestine/large intestine type Crohn's disease; assay: Clinical case: repeated administration of Infliximab under enteral administration of ELENTAL, Crohn's disease activity index (CDAI) and ulcer findings; assay type: in vivo, human; settings: for CDAI two weeks later: ELENTAL continued
Procedure: A patient is a person, and they are the patient with small intestine/large intestine type Crohn's disease that began. By August 2002, Crohn's disease repeatedly recurred and they were hospitalized three times.
In July 2002, since Crohn's disease recurred again accompanied by stomachache, diarrhea and fever, 5 mg/kg of Infliximab (REMICADE® (trademark) 100 for drip infusion) under the enteral administration of 1200 kcal of ELENTAL® (trademark) was administered to the patient. The clinical activity index of Crohn's disease before the administration was 186 (150 or higher fall into the active stage). However, the index was lowered to 67 two weeks after the administration. During the period, an open longitudinal ulcer(s) seen in the transverse colon and sigmoid colon was cicatrized. After that, thought the patient was treated with the home enteral nutritional therapy, the symptoms recurred in February 2003 and CDAI increased up to 230. Continuing the enteral administration of ELENTAL® (trademark), Infliximab (5 mg/kg) was administered for the second time. Then, CDAI was lowered again to 63 two weeks later. […] Therefore, Infliximab (5 mg/kg) was administered for the third time, and CDAI was lowered to 80 two weeks later. Before and after the administration for the third time, it was confirmed that an open ulcer(s) of the sigmoid colon was cicatrized. Similarly, though CDAI increased in the 50th week, 68th week and 83rd week from the first administration, CDAI of 147 to 275 decreased to 50 to 80 […] by the fourth, fifth and sixth time administrations of Infliximab. During that time, administration of ELENTAL was continued.
Usually, the repeated administration of Infliximab promotes production of antibody and, therefore, its effect weakens in the repeated administration.

[2] = system: patient with small intestine/large intestine type Crohn's disease

Infliximab
CDAI at recurrence of symptoms ([1]; February 2003, after first Infliximab administration, under home enteral nutritional therapy, before second administration): 230
open ulcer(s) of the sigmoid colon ([1]; before and after the third administration of Infliximab 5 mg/kg under ELENTAL): cicatrized
open longitudinal ulcer(s) in the transverse colon and sigmoid colon ([1]; during the two weeks after first administration of Infliximab 5 mg/kg under ELENTAL): cicatrized
clinical activity index of Crohn's disease (CDAI) two weeks after the administration ([1]; first administration, Infliximab 5 mg/kg drip infusion under enteral ELENTAL 1200 kcal, index before administration 186 (150 or higher = active stage)): 67
CDAI two weeks later ([1]; second administration of Infliximab 5 mg/kg, CDAI before 230): 63
CDAI two weeks later ([1]; third administration of Infliximab 5 mg/kg, CDAI before 250): 80
CDAI increase under administration of ELENTAL ([1]; two months after second administration, before third administration): 250
tuberculosis bacterium infection ([2]; first to sixth administration of Infliximab with ELENTAL): not seen
infection in organs of respiration or in a urinary tract ([2]; human, in vivo): no finding of indication of infection
